Results published in PubChem BioAssay (NCI).
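GI50 = concentration required for 50% inhibition of growth. At the TGI there is no net growth.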

Legend:
Assay in all cases: growth of human tumour cells (NCI), 384-well format
[1] = tested on: CCRF-CEM leukemia
[2] = tested on: HL-60(TB) leukemia
[3] = tested on: COLO 205 colon
[4] = tested on: KM12 colon
[5] = tested on: HCC-2998 colon
[6] = tested on: SF-268 CNS
[7] = tested on: MDA-MB-468 breast
[8] = tested on: IGROV1 ovarian
[9] = tested on: PC-3 prostate
[10] = tested on: NCI-H522 lung
[11] = tested on: CAKI-1 renal
[12] = tested on: HCT-15 colon
[13] = tested on: RPMI-8226 leukemia
[14] = tested on: SF-295 CNS
[15] = tested on: MDA-MB-231 breast
[16] = tested on: EKVX NSCLC
[17] = tested on: MDA-MB-435 melanoma
[18] = tested on: ACHN renal
[19] = tested on: T-47D breast
[20] = tested on: NCI/ADR-RES ovarian
[21] = tested on: OVCAR-8 ovarian
[22] = tested on: UO-31 renal
[23] = tested on: NCI-H460 NSCLC
[24] = tested on: MCF7 breast
[25] = tested on: HOP-62 NSCLC
[26] = tested on: SK-MEL-5 melanoma
[27] = tested on: HT29 colon
[28] = tested on: NCI-H226 lung
[29] = tested on: SK-MEL-28 melanoma
[30] = tested on: SW-620 colon
[31] = tested on: SNB-75 CNS
[32] = tested on: UACC-257 melanoma
[33] = tested on: TK-10 renal
[34] = tested on: LOX IMVI melanoma
[35] = tested on: UACC-62 melanoma
[36] = tested on: K-562 leukemia
[37] = tested on: DU-145 prostate
[38] = tested on: SK-OV-3 ovarian
[39] = tested on: SF-539 CNS
[40] = tested on: A498 renal
[41] = tested on: BT-549 breast
[42] = tested on: MALME-3M melanoma
[43] = tested on: HS 578T breast
[44] = tested on: SR leukemia
[45] = tested on: OVCAR-5 ovarian
[46] = tested on: MOLT-4 leukemia
[47] = tested on: NCI-H322M lung
[48] = tested on: OVCAR-4 ovarian
[49] = tested on: M14 melanoma
[50] = tested on: RXF 393 renal
[51] = tested on: NCI-H23 lung
[52] = tested on: A549 NSCLC
[53] = tested on: 786-0 renal
[54] = tested on: OVCAR-3 ovarian
[55] = tested on: HOP-92 NSCLC
[56] = tested on: SN12C renal
[57] = tested on: SNB-19 CNS

COc1cc2c(cc1-c1c(C)noc1C)cc(C)c(=O)n2Cc1ccccn1
GI50 [1]: 338 nM
TGI [1]: 1650 nM
GI50 [2]: 118 nM
TGI [2]: 255 nM
GI50 [3]: 498 nM
TGI [3]: 13300 nM
GI50 [4]: 691 nM
TGI [4]: 20300 nM
GI50 [5]: 324 nM
TGI [5]: 1410 nM
GI50 [6]: 2010 nM
TGI [6]: 11300 nM
GI50 [7]: 226 nM
TGI [7]: 693 nM
GI50 [8]: 566 nM
TGI [8]: 3330 nM
GI50 [9]: 1820 nM
TGI [9]: > 100000 nM
GI50 [10]: 202 nM
TGI [10]: 817 nM
GI50 [11]: 342 nM
TGI [11]: 18500 nM
GI50 [12]: 282 nM
TGI [12]: 1550 nM
GI50 [13]: 106 nM
TGI [13]: 316 nM
GI50 [14]: 1750 nM
TGI [14]: 24900 nM
GI50 [15]: 367 nM
TGI [15]: 16200 nM
GI50 [16]: 4540 nM
TGI [16]: > 100000 nM
GI50 [17]: 1010 nM
TGI [17]: 2420 nM
GI50 [18]: 1050 nM
TGI [18]: > 100000 nM
GI50 [19]: 313 nM
TGI [19]: 3060 nM
GI50 [20]: 371 nM
TGI [20]: 2470 nM
GI50 [21]: 430 nM
TGI [21]: 9450 nM
GI50 [22]: 2890 nM
TGI [22]: > 100000 nM
GI50 [23]: 2120 nM
TGI [23]: 17500 nM
GI50 [24]: 257 nM
TGI [24]: 2480 nM
GI50 [25]: 415 nM
TGI [25]: 16500 nM
GI50 [26]: 527 nM
TGI [26]: 2380 nM
GI50 [27]: 376 nM
TGI [27]: 5680 nM
GI50 [28]: 646 nM
TGI [28]: 5740 nM
GI50 [29]: 628 nM
TGI [29]: 6770 nM
GI50 [30]: 1680 nM
TGI [30]: 14400 nM
GI50 [31]: 487 nM
TGI [31]: > 100000 nM
GI50 [32]: 373 nM
TGI [32]: 4710 nM
GI50 [33]: 367 nM
TGI [33]: 3810 nM
GI50 [34]: 321 nM
TGI [34]: 1090 nM
GI50 [35]: 190 nM
TGI [35]: 1440 nM
GI50 [36]: 448 nM
TGI [36]: 2780 nM
GI50 [37]: 6450 nM
TGI [37]: > 100000 nM
GI50 [38]: 433 nM
TGI [38]: 3610 nM
GI50 [39]: 805 nM
TGI [39]: 7540 nM
GI50 [40]: 418 nM
TGI [40]: 12400 nM
GI50 [41]: 262 nM
TGI [41]: 1680 nM
GI50 [42]: 274 nM
TGI [42]: 2180 nM
GI50 [43]: 192 nM
TGI [43]: 671 nM
GI50 [44]: 140 nM
TGI [44]: 1150 nM
GI50 [45]: 496 nM
TGI [45]: 21300 nM
GI50 [46]: 616 nM
TGI [46]: 1920 nM
GI50 [47]: 1090 nM
TGI [47]: 31700 nM
GI50 [48]: 188 nM
TGI [48]: 586 nM
GI50 [49]: 600 nM
TGI [49]: 21800 nM
GI50 [50]: 1980 nM
TGI [50]: 15300 nM
GI50 [51]: 742 nM
TGI [51]: 5190 nM
GI50 [52]: 557 nM
TGI [52]: 18300 nM
GI50 [53]: 812 nM
TGI [53]: 19200 nM
GI50 [54]: 374 nM
TGI [54]: 1650 nM
GI50 [55]: 234 nM
TGI [55]: 4540 nM
GI50 [56]: 2180 nM
TGI [56]: 21500 nM
GI50 [57]: 1130 nM
TGI [57]: 23600 nM
